Assay results taken from ChEMBL document CHEMBL4507256 (2021).

Assays:
[1] = molecular target: Serine/threonine-protein kinase NIM1 (Homo sapiens) (UniProt Q8IY84); conditions: Compound concentration 1000.0 nM
[2] = system: Tyrosine-protein kinase ABL1 (Homo sapiens), P00519 [Q252H]; conditions: Compound concentration 1000.0 nM
[3] = molecular target: RAC-alpha serine/threonine-protein kinase (Homo sapiens) (UniProt P31749); conditions: Compound concentration 1000.0 nM
[4] = molecular target: Serine/threonine-protein kinase Nek6 (Homo sapiens) (UniProt Q9HC98); conditions: Compound concentration 1000.0 nM
Serine/threonine-protein kinase Nek6 (Homo sapiens), sequence (Q9HC98 whole entry): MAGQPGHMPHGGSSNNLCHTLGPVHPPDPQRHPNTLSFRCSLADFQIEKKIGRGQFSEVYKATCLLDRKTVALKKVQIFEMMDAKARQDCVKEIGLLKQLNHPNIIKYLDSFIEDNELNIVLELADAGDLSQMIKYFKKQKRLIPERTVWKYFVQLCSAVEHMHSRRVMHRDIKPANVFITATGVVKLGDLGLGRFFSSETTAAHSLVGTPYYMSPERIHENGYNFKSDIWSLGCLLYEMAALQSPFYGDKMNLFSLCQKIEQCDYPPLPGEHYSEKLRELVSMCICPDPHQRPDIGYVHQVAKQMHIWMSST

[5] = molecular target: Dual specificity testis-specific protein kinase 1 (Homo sapiens) (UniProt Q15569); conditions: Compound concentration 1000.0 nM
[6] = system: Receptor-type tyrosine-protein kinase FLT3 (Homo sapiens), P36888 [UNDEFINED MUTATION]; conditions: Compound concentration 1000.0 nM
Receptor-type tyrosine-protein kinase FLT3 (Homo sapiens), P36888 [UNDEFINED MUTATION], sequence (P36888 whole entry, looked up, change not shown): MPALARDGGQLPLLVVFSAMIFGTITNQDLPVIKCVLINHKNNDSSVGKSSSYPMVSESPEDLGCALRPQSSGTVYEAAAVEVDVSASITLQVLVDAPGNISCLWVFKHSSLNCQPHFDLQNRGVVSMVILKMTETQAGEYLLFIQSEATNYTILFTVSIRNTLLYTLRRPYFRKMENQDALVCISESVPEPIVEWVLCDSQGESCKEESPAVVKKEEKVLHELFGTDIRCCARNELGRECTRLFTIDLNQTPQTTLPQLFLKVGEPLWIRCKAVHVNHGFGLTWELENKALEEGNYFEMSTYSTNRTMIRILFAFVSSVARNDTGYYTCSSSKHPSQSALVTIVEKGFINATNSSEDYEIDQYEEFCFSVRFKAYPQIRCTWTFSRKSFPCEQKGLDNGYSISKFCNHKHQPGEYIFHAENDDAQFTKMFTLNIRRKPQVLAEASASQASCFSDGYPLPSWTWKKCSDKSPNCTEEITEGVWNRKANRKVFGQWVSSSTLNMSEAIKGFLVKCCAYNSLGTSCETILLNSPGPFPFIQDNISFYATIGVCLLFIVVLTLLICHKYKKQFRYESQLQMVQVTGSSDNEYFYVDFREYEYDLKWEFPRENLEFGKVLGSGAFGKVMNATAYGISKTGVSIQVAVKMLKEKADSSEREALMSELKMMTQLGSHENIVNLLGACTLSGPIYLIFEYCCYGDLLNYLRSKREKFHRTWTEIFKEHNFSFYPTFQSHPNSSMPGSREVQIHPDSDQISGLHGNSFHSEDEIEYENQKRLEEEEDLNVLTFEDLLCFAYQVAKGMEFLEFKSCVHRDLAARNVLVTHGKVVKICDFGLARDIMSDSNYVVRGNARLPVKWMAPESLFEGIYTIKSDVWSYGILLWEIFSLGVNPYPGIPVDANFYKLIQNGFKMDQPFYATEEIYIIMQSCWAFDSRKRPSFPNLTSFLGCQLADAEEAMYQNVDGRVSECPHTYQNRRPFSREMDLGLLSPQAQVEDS

[7] = molecular target: cAMP-dependent protein kinase catalytic subunit alpha (Homo sapiens) (UniProt P17612); conditions: Compound concentration 1000.0 nM
[8] = molecular target: Death-associated protein kinase 2 (Homo sapiens) (UniProt Q9UIK4); conditions: Compound concentration 1000.0 nM
[9] = molecular target: Dual specificity mitogen-activated protein kinase kinase 3 (Homo sapiens) (UniProt P46734); conditions: Compound concentration 1000.0 nM
Dual specificity mitogen-activated protein kinase kinase 3 (Homo sapiens), sequence (P46734 whole entry, the tested form may be a part): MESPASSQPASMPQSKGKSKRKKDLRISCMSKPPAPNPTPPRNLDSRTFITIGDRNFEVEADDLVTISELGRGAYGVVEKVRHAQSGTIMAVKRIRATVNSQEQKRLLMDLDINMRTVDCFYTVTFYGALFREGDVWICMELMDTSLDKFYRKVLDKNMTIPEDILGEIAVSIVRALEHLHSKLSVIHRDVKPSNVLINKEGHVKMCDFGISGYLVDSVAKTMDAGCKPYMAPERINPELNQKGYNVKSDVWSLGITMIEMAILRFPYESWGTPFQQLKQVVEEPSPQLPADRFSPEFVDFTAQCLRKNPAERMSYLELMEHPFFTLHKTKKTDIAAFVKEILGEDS

[10] = molecular target: Epithelial discoidin domain-containing receptor 1 (Homo sapiens) (UniProt Q08345); conditions: Compound concentration 1000.0 nM
[11] = molecular target: Serine/threonine-protein kinase Nek3 (Homo sapiens) (UniProt P51956); conditions: Compound concentration 1000.0 nM
[12] = molecular target: Serine/threonine-protein kinase 24 (Homo sapiens) (UniProt Q9Y6E0); conditions: Compound concentration 1000.0 nM
Serine/threonine-protein kinase 24 (Homo sapiens), sequence (Q9Y6E0 whole entry, looked up): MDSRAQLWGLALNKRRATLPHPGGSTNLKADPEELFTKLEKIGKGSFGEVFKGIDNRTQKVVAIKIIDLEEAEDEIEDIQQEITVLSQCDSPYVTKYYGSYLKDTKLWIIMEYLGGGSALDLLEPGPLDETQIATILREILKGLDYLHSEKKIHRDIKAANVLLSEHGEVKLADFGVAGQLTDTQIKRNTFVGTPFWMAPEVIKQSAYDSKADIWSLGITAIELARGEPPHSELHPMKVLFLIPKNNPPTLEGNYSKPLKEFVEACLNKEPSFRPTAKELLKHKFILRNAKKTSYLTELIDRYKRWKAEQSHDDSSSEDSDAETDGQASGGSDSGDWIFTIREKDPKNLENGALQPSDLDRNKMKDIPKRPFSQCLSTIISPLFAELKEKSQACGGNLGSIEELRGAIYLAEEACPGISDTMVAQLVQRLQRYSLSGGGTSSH

[13] = molecular target: Serine/threonine-protein kinase 4 (Homo sapiens) (UniProt Q13043); conditions: Compound concentration 1000.0 nM
[14] = molecular target: Casein kinase II subunit alpha' (Homo sapiens) (UniProt P19784); conditions: Compound concentration 1000.0 nM
[15] = molecular target: Cyclin-dependent kinase 3 (Homo sapiens) (UniProt Q00526); conditions: Compound concentration 1000.0 nM
[16] = molecular target: Tyrosine-protein kinase JAK2 (Homo sapiens) (UniProt O60674); conditions: Compound concentration 1000.0 nM
[17] = molecular target: SNF-related serine/threonine-protein kinase (Homo sapiens) (UniProt Q9NRH2); conditions: Compound concentration 1000.0 nM
[18] = system: Tyrosine-protein kinase ABL1 (Homo sapiens), P00519 [F317I]; conditions: Compound concentration 1000.0 nM
[19] = molecular target: Tyrosine-protein kinase BTK (Homo sapiens) (UniProt Q06187); conditions: Compound concentration 1000.0 nM
Tyrosine-protein kinase BTK (Homo sapiens), sequence (Q06187 whole entry): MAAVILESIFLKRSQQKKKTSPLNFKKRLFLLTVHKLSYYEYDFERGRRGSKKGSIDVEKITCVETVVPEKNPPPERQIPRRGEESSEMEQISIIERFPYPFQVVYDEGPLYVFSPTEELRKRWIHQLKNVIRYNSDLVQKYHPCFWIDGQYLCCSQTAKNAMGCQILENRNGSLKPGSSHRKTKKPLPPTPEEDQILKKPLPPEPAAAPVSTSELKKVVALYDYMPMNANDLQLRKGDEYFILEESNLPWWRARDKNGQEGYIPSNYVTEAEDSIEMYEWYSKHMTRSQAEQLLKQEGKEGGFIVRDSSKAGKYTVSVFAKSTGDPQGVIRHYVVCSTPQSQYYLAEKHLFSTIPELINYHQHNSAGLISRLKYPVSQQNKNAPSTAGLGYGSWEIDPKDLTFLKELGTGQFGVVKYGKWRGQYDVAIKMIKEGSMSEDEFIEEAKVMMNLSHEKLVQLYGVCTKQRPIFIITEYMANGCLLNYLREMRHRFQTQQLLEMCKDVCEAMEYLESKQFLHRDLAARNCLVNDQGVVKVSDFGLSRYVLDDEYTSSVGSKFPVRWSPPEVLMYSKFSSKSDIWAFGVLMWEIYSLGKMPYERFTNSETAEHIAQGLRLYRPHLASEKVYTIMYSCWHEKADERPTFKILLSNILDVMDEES

[20] = molecular target: Ephrin type-A receptor 8 (Homo sapiens) (UniProt P29322); conditions: Compound concentration 1000.0 nM
Ephrin type-A receptor 8 (Homo sapiens), sequence (P29322 whole entry): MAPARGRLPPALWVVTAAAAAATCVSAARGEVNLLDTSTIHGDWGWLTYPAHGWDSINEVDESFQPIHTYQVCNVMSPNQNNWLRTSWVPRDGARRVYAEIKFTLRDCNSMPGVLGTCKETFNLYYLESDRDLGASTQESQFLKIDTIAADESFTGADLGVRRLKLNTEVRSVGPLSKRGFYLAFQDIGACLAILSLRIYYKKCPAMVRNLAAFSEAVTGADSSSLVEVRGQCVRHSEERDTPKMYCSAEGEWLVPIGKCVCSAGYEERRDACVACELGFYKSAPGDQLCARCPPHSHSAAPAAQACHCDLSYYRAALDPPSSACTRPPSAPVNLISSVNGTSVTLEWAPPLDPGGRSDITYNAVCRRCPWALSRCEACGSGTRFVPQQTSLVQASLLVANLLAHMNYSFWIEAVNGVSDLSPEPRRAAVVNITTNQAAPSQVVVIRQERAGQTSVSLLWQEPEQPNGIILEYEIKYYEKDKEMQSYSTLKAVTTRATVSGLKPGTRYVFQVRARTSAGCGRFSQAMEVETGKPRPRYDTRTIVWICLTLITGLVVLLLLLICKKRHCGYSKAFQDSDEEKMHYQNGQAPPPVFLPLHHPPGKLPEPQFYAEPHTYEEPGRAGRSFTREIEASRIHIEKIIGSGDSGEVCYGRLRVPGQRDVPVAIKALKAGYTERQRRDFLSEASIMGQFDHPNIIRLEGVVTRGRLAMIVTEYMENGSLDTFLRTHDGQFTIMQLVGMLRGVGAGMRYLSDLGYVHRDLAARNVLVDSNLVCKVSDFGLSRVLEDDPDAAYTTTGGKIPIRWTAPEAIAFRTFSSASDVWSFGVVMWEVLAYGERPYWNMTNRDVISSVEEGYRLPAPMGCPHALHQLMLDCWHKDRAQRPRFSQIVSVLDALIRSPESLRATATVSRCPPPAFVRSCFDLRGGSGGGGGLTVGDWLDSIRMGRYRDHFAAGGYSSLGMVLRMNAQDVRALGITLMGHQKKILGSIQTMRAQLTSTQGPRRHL

[21] = molecular target: Microtubule-associated serine/threonine-protein kinase 1 (Homo sapiens) (UniProt Q9Y2H9); conditions: Compound concentration 1000.0 nM
[22] = molecular target: Tyrosine-protein kinase Yes (Homo sapiens) (UniProt P07947); conditions: Compound concentration 1000.0 nM
[23] = molecular target: Alpha-1D adrenergic receptor (Homo sapiens) (UniProt P25100); conditions: Compound concentration 10.0 uM
[24] = molecular target: Cyclin-dependent kinase 9 (Homo sapiens) (UniProt P50750); conditions: Compound concentration 1000.0 nM
[25] = molecular target: Sigma non-opioid intracellular receptor 1 (Homo sapiens, UniProt Q99720); conditions: Compound concentration 10.0 uM
Sigma non-opioid intracellular receptor 1, sequence (Q99720 whole entry): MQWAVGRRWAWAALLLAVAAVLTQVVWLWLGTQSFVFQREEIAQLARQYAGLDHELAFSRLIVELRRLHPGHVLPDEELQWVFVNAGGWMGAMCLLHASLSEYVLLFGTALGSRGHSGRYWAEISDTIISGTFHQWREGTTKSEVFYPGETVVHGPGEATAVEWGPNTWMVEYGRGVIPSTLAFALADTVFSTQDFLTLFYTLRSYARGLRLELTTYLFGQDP

[26] = molecular target: Dual specificity protein kinase CLK1 (Homo sapiens) (UniProt P49759); conditions: Compound concentration 1000.0 nM
[27] = molecular target: Casein kinase I isoform epsilon (Homo sapiens) (UniProt P49674); conditions: Compound concentration 1000.0 nM
[28] = molecular target: D(2) dopamine receptor (Homo sapiens) (UniProt P14416); conditions: Compound concentration 10.0 uM
[29] = molecular target: Aurora kinase C (Homo sapiens) (UniProt Q9UQB9); conditions: Compound concentration 1000.0 nM
Aurora kinase C (Homo sapiens), sequence (Q9UQB9 whole entry): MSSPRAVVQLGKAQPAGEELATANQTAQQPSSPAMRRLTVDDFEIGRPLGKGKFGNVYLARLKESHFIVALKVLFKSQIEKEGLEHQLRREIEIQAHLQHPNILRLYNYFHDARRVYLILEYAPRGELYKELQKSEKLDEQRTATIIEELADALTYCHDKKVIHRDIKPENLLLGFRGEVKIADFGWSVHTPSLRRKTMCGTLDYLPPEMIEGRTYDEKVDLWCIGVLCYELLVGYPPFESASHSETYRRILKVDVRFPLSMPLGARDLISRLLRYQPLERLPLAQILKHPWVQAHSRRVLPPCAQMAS

[30] = molecular target: Vascular endothelial growth factor receptor 3 (Homo sapiens) (UniProt P35916); conditions: Compound concentration 1000.0 nM
[31] = molecular target: Protein kinase C eta type (Homo sapiens) (UniProt P24723); conditions: Compound concentration 1000.0 nM
[32] = molecular target: Mitogen-activated protein kinase 4 (Homo sapiens) (UniProt P31152); conditions: Compound concentration 1000.0 nM
[33] = molecular target: Cyclin-dependent kinase-like 5 (Homo sapiens) (UniProt O76039); conditions: Compound concentration 1000.0 nM
[34] = molecular target: Calcium/calmodulin-dependent protein kinase type 1B (Homo sapiens) (UniProt Q6P2M8); conditions: Compound concentration 1000.0 nM
[35] = molecular target: Activin receptor type-1B (Homo sapiens) (UniProt P36896); conditions: Compound concentration 1000.0 nM
[36] = molecular target: Serine/threonine-protein kinase RIO1 (Homo sapiens) (UniProt Q9BRS2); conditions: Compound concentration 1000.0 nM
[37] = molecular target: Mitogen-activated protein kinase 8 (Homo sapiens) (UniProt P45983); conditions: Compound concentration 1000.0 nM
[38] = molecular target: Serine/threonine-protein kinase BRSK1 (Homo sapiens) (UniProt Q8TDC3); conditions: Compound concentration 1000.0 nM
[39] = molecular target: Mitogen-activated protein kinase kinase kinase 9 (Homo sapiens) (UniProt P80192); conditions: Compound concentration 1000.0 nM
[40] = molecular target: Tyrosine-protein kinase JAK1 (Homo sapiens) (UniProt P23458); conditions: Compound concentration 1000.0 nM
[41] = molecular target: Ribosomal protein S6 kinase alpha-4 (Homo sapiens) (UniProt O75676); conditions: Compound concentration 1000.0 nM

RAC-alpha serine/threonine-protein kinase (Homo sapiens), sequence (P31749 whole entry): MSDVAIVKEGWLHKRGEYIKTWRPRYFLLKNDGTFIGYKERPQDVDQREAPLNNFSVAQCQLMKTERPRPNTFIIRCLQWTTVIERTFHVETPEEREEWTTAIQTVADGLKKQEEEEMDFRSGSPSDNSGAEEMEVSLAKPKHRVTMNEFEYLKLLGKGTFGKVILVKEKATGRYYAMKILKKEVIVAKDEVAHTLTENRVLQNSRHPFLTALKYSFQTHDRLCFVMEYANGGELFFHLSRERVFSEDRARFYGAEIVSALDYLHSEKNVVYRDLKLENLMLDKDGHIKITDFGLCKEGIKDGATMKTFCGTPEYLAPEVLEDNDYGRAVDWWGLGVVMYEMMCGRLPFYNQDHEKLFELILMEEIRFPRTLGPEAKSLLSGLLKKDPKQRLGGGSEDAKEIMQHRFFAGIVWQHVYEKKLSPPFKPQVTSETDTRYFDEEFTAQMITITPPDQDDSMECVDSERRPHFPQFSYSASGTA

Compound: CCC(=N\O)/C(C)=C/c1ccc(F)c(C)c1 [A-226]
- residual activity [1]: 100%
- residual activity [2]: 100%
- residual activity [3]: 98%
- residual activity [4]: 99%
- residual activity [5]: 73%
- residual activity [6]: 100%
- residual activity [7]: 100%
- residual activity [8]: 85%
- residual activity [9]: 100%
- residual activity [10]: 91%
- residual activity [11]: 100%
- residual activity [12]: 86%
- residual activity [13]: 70%
- residual activity [14]: 73%
- residual activity [15]: 100%
- residual activity [16]: 100%
- residual activity [17]: 100%
- residual activity [18]: 100%
- residual activity [19]: 100%
- residual activity [20]: 99%
- residual activity [21]: 100%
- residual activity [22]: 100%
- inhibition [23]: -3.74%
- residual activity [24]: 96%
- inhibition [25]: 86.8%
- residual activity [26]: 100%
- residual activity [27]: 92%
- inhibition [28]: -6.57%
- residual activity [29]: 100%
- residual activity [30]: 80%
- residual activity [31]: 68%
- residual activity [32]: 96%
- residual activity [33]: 100%
- residual activity [34]: 100%
- residual activity [35]: 82%
- residual activity [36]: 100%
- residual activity [37]: 100%
- residual activity [38]: 99%
- residual activity [39]: 100%
- residual activity [40]: 100%
- residual activity [41]: 100%

Compound: CCC(=N\O)/C(C)=C/c1ccc(F)cc1 [A-079]
- residual activity [1]: 94%
- residual activity [2]: 69%
- residual activity [3]: 82%
- residual activity [4]: 87%
- residual activity [5]: 82%
- residual activity [6]: 94%
- residual activity [7]: 78%
- residual activity [8]: 97%
- residual activity [9]: 94%
- residual activity [10]: 89%
- residual activity [11]: 100%
- residual activity [12]: 100%
- residual activity [13]: 78%
- residual activity [14]: 100%
- residual activity [15]: 84%
- residual activity [16]: 71%
- residual activity [17]: 100%
- residual activity [18]: 77%
- residual activity [19]: 78%
- residual activity [20]: 100%
- residual activity [21]: 71%
- residual activity [22]: 87%
- inhibition [23]: -4.38%
- residual activity [24]: 93%
- inhibition [25]: 84%
- residual activity [26]: 79%
- residual activity [27]: 99%
- inhibition [28]: -8.66%
- residual activity [29]: 80%
- residual activity [30]: 100%
- residual activity [31]: 100%
- residual activity [32]: 75%
- residual activity [33]: 82%
- residual activity [34]: 82%
- residual activity [35]: 77%
- residual activity [36]: 80%
- residual activity [37]: 86%
- residual activity [38]: 100%
- residual activity [39]: 77%
- residual activity [40]: 88%
- residual activity [41]: 96%
